Here are results for one compound from publication PMC11579541, “In vitro, in vivo, and in silico approaches for evaluating the preclinical DMPK profiles of ammoxetine, a novel chiral serotonin and norepinephrine reuptake inhibitor” (Frontiers in Pharmacology, 2024).

The test system of one data set is HLM. Kind of data set: Hepatic microsome stability assay, HLM. The format is in vitro ADME, human. The following applies: predicted hepatic clearance. Here is the method: (§1) A hepatic microsome stability assay was conducted to investigate the metabolic disposition of ammoxetine. In this assay, 100 μL of ammoxetine (2.5 μmol/L) was incubated at 37°C with 100 μL of liver microsomes (RLM, DLM, MLM, or HLM) formulated in a 5 mmol/L dipotassium hydrogen phosphate (K2HPO4) buffer at pH 7.4. The concentration of microsomes was 0.5 g/L. To initiate the incubations, 50 μL of NADPH solution preincubated at 37°C was added. […] Parallel triplicate samples were prepared for each time point, including 0, 2, 5, 10, 15, 30, 60, 90, and 120 min. To stop the reactions at each time point, 250 μL of ice-cold precipitating agent (acetonitrile/methanol, 1:1, v/v) containing 500 ng/mL of L-phencynonate (IS) was added to the incubation mixture. The samples were vortexed for 2 min at 4°C and then centrifuged at 13,800×g for 10 min. The supernatants were analyzed using an LC-MS-MS approach. […]
(§2) In Formula 3, t1/2 (min) represents the half-life of ammoxetine in liver microsomes. It is calculated by dividing −0.693 by the resulting slope (k e) obtained from a natural logarithm plot of the remaining concentration of ammoxetine against incubation time. […]

Data set [1] in a line: Hepatic microsome stability assay, HLM. The format is in vitro ADME, human. The following applies: human, liver microsomes, pH 7.4; 1 μmol/L, 0.2 g/L microsomes, NADPH. How it is done: as §1, §2
In general terms: Liver microsomes are a subcellular fraction often used to study metabolism.

A further data set has as its system P-gp (MDR1). Kind of data set: Bidirectional permeability measurements in MDCK-MDR1 monolayers. Type of data set: in vitro ADME, canine. The following applies: dog, MDCK-MDR1, read-out: ER [Papp(B→A)⁄Papp(A→B)]. Here is the method:
(§3) MDCK-MDR1 cells at passage 17 were cultured in DMEM supplemented with 10% FBS, 1% glutamine, 100 U/mL penicillin/streptomycin, 1% NEAA, and 1 mmol/L sodium pyruvate. The cells were incubated overnight at 37°C with 5% CO2 and a relative humidity of 90%. Once the cells reached approximately 80% confluence, they were treated with a 0.25% trypsin/EDTA solution to dissociate the cells. Subsequently, the cells were seeded at a density of 5 × 10^5 cells/cm^2 in Millicell-96 well plates (Millipore, Burlington, USA). Prior to conducting the experiments, the integrity of the cell monolayer was confirmed by measuring transepithelial electrical resistance (TEER) using a Millicell ERS® meter (Millipore, Burlington, USA). A TEER value greater than 400 Ω cm^2 was required to ensure the formation and preservation of tight junctions.
(§4) Cell monolayers were preincubated with HBSS for 15 min at 37°C. To measure the A→B (apical side to basolateral side of monolayer) transporter, 400 μL of ammoxetine solution was added to the A-side (donor chamber), and 1,200 μL of HBSS solution was added to the B-side (receiver chamber). The B→A transporter was evaluated by adding 1,200 μL of ammoxetine solution to the B-side (donor chamber) and 400 μL of HBSS solution to the A-side (receiver chamber). At 0 h, 50 μL of the solution was taken from the donor chamber, and aliquots of 50 μL were taken from the receiver chamber at 15, 30, 45, 60, 90, and 120-min time intervals. The collected aliquots were immediately replaced with equal volumes of fresh blank HBSS. Ammoxetine transport was studied at three concentrations: 0.2, 1, and 5 μg/mL, with each concentration evaluated in triplicate. […] Ammoxetine samples collected from the receiver chambers at different time points were mixed with 150 μL of acetonitrile/methanol (1:1, v/v) solution containing 50 ng/mL L-phencynonate (IS). The mixtures were then vortexed for 1 min and centrifuged for 10 min at 13,800×g. The supernatants were analyzed using an LC-MS-MS method.
(§5) The apparent permeability coefficient ( Papp , cm/s) values for ammoxetine were determined using Equation 1: Papp=dQ/dt/A×C0 (1)
(§6) Here, dQ/dt represents the amount of drug transported to the receiver chamber within a specific time period, A is the surface area of the cell monolayer (=0.33 cm^2), and C0 is the initial concentration of ammoxetine.
(§7) In general, the involvement of a P-gp-mediated efflux mechanism was indicated if the efflux ratio ( ER ) value exceeded 1.5 ([Langthaler et al., 2024]). […]

For another data set, the system named is MDCK-MDR1 cells. The description is as above. Type of data set: in vitro ADME, canine. The following applies: from ER and verapamil effect. How it is done:
as §3, §4, §5, §6, §7

The next data set deals with P-gp. The description is as above. Type of data set: in vitro ADME, canine. The following applies: dog, MDCK-MDR1, with verapamil 100 μmol/L, verapamil 100 μmol/L. How it is done: as §3, §4, §5, §6, §7
Assay in data set [2]: as above
The format is in vitro ADME, canine. The following applies: dog, MDCK-MDR1, 2 h. Here is the method: as §3, §4, §5, §6, §7

For the compound `CNCC[C@H](Oc1cccc2c1OCO2)c1cccs1` [ammoxetine], in the data set on HLM, the CL h is 9.05 ± 0.13 mL/min/kg. The same compound yielded a half-life at 1 μmol/L in data set [1] of 4.16 ± 0.101 h. In addition, the efflux ratio at 120 min, 0.2 μg/mL in the data set on P-gp (MDR1) (0.2 μg/mL) was found to be 1.67. The efflux ratio at 120 min, 1 μg/mL in the data set on P-gp (MDR1) (1 μg/mL) came out at 1.74. Also, in the data set on P-gp (MDR1) (5 μg/mL), the efflux ratio at 120 min, 5 μg/mL came to 1.9. In addition, in the data set with MDCK-MDR1 cells, the P-gp substrate status entry was “likely a substrate of P-gp”. This compound also displayed a Papp A→B at 120 min, 0.2 μg/mL in the data set on P-gp (0.2 μg/mL) of 27.2 ± 6.43 ×10⁻⁶ cm/s. In the data set on P-gp (1 μg/mL), the Papp A→B at 120 min, 1 μg/mL worked out at 28.8 ± 1.89 ×10⁻⁶ cm/s. The compound further yielded a Papp A→B at 120 min, 5 μg/mL in the data set with P-gp (5 μg/mL) of 29.9 ± 3.29 ×10⁻⁶ cm/s. Moreover, in data set [2] (0.2 μg/mL), the Papp A→B at 2 h, 0.2 μg/mL was 15.8 ± 2.83 ×10⁻⁶ cm/s and the Papp B→A at 2 h, 0.2 μg/mL is 26.5 ± 5.3 ×10⁻⁶ cm/s. Further, in data set [2] (1 μg/mL), the apparent permeability from apical to basolateral (Papp A→B) at 2 h, 1 μg/mL was determined as 6.61 ± 0.555 ×10⁻⁶ cm/s and the Papp B→A at 2 h, 1 μg/mL was found to be 11.5 ± 2.93 ×10⁻⁶ cm/s. In data set [2] (5 μg/mL), this compound returned a Papp A→B at 2 h, 5 μg/mL of 13.2 ± 1.26 ×10⁻⁶ cm/s and a Papp B→A at 2 h, 5 μg/mL of 25.2 ± 3.49 ×10⁻⁶ cm/s.

Usually half-life stands for how long it takes for the measured level to halve. A lower half-life goes with fast loss. One may read the Papp A→B as how fast a substance crosses the layer from the apical side. The low end stands for slow passage, the high end for fast passage. One may read the Papp B→A as how fast a substance crosses the layer from the basolateral side.
